Data from PubChem BioAssay AID330 (DTP/NCI, 2004).
Inconclusive results and toxic doses are left out.

Test system: P388 leukemia ip, CD2F1 mice, survival T/C
Assay: NCI In Vivo Anticancer Drug Screen. Data for tumor model P388 Leukemia (intraperitoneal) in CD2F1 (CDF1) mice
Conditions: endpoint: median survival time, higher = longer survival
How it was run: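 Mice carrying the transplanted tumor received test compound or vehicle. Survival was recorded in each group, and the value is the treated-group measurement divided by that of the vehicle-treated control group.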

[1] = dose: 50.0 mg/kg/injection, schedule: Q01DX005 (ip), vehicle: saline with Tween-80
[2] = dose: 25.0 mg/kg/injection, schedule: Q01DX009 (ip), vehicle: distilled water + Tween-80
[3] = dose: 50.0 mg/kg/injection, schedule: Q01DX009 (ip), vehicle: distilled water + Tween-80
[4] = dose: 100.0 mg/kg/injection, schedule: Q01DX009 (ip), vehicle: distilled water + Tween-80
[5] = dose: 25.0 mg/kg/injection, schedule: Q01DX009 (ip), vehicle: saline with Tween-80
[6] = dose: 50.0 mg/kg/injection, schedule: Q01DX009 (ip), vehicle: saline with Tween-80
[7] = dose: 100.0 mg/kg/injection, schedule: Q01DX009 (ip), vehicle: saline with Tween-80
[8] = dose: 100.0 mg/kg/injection, schedule: Q01DX005 (ip), vehicle: saline with Tween-80
[9] = dose: 50.0 mg/kg/injection, schedule: Q01DX009 (ip), vehicle: Klucel (hydroxypropylcellulose) (HPC)
[10] = dose: 100.0 mg/kg/injection, schedule: Q01DX009 (ip), vehicle: Klucel (hydroxypropylcellulose) (HPC)
[11] = dose: 200.0 mg/kg/injection, schedule: Q01DX009 (ip), vehicle: saline with Tween-80
[12] = dose: 200.0 mg/kg/injection, schedule: Q01DX005 (ip), vehicle: saline with Tween-80
[13] = dose: 200.0 mg/kg/injection, schedule: Q01DX009 (ip), vehicle: Klucel (hydroxypropylcellulose) (HPC)

With `CN(C)CCC(=O)C1CC1` the T/C (dose: 12.5 mg/kg/injection, schedule: Q01DX005 (ip), vehicle: suspension in saline) was 94 % of control, the T/C (dose: 25.0 mg/kg/injection, schedule: Q01DX005 (ip), vehicle: suspension in saline) was 97 % of control and the T/C [1] was 92 % of control. For the same compound, the T/C (dose: 50.0 mg/kg/injection, schedule: Q01DX005 (ip), vehicle: suspension in saline) was 100 % of control.
In the case of `N#CC(Cc1ccccc1)c1ccccc1` (stereo not drawn), the T/C [2] is reported as 95 % of control, the T/C [3] is reported as 110 % of control and the T/C [4] is reported as 93 % of control.
In the case of `O=C(N/N=C/c1ccccn1)N/N=C/c1ccccn1`, the T/C (dose: 12.5 mg/kg/injection, schedule: Q01DX009 (ip), vehicle: distilled water + Tween-80) is reported as 102 % of control, the T/C [2] is reported as 103 % of control and the T/C [3] is reported as 113 % of control. The T/C [4] was 104 % of control.
In the case of `CC(C)NCC(O)c1cc(Br)c(Br)s1` (stereo not drawn), the T/C (dose: 50.0 mg/kg/injection, schedule: Q01DX009 (ip), vehicle: saline) is reported as 98 % of control and the T/C (dose: 100.0 mg/kg/injection, schedule: Q01DX009 (ip), vehicle: saline) is reported as 102 % of control.
`CCCSCCSCCC` was tested, and the T/C [5] was 91 % of control, the T/C [6] was 100 % of control and the T/C [7] was 95 % of control.
In the case of `O=C(Nc1ccc(N=Nc2ccccc2)cc1)SCCO`, the T/C [1] is reported as 102 % of control and the T/C [8] is reported as 108 % of control.
With `NCC(S)c1ccc(Cl)cc1` (stereo not drawn) the T/C (dose: 12.5 mg/kg/injection, schedule: Q01DX001 (ip), vehicle: saline) was 100 % of control, the T/C (dose: 25.0 mg/kg/injection, schedule: Q01DX001 (ip), vehicle: saline) was 100 % of control and the T/C (dose: 50.0 mg/kg/injection, schedule: Q01DX001 (ip), vehicle: saline) was 100 % of control.
For `C=CC(C)(O)/C=C/C=C(\C)C(CC1OC1(C)C)OC(=O)/C(C)=C\C` (stereo not drawn), the T/C [9] was 95 % of control and the T/C [10] was 107 % of control.
With `CCOc1cccc2c(NCCCCCCCCNc3c4ccccc4nc4c(OCC)cccc34)c3ccccc3nc12` the T/C (dose: 3.75 mg/kg/injection, schedule: Q01DX009 (ip), vehicle: other) was 166 % of control and the T/C (dose: 7.5 mg/kg/injection, schedule: Q01DX009 (ip), vehicle: other) was 157 % of control.
With `CC(NC(=O)OCc1ccccc1)C(=O)Oc1cc(Cl)c(Cl)cc1Cl` (stereo not drawn) the T/C [6] was 109 % of control, the T/C [7] was 104 % of control and the T/C [11] was 107 % of control.
`[N-]=[N+]=NCN1C(=O)C2C3C=CC(C2C1=O)C1C2C(=O)N(CN=[N+]=[N-])C(=O)C2C31` (stereo not drawn) was tested, and the T/C [5] was 106 % of control, the T/C [6] was 108 % of control and the T/C [7] was 100 % of control. The T/C [11] was 115 % of control.
With `CC(=O)/C(=C\c1ccc(O)cc1)C(=O)CCN(C)C` the T/C [1] was 108 % of control, the T/C [8] was 112 % of control and the T/C [12] was 112 % of control.
`C/C=C/C1OC(=O)C=C1Sc1ccccc1` (stereo not drawn) was tested, and the T/C [1] was 114 % of control, the T/C [8] was 117 % of control and the T/C [12] was 114 % of control.
For `Oc1ccc(N=Cc2cccs2)cc1`, the T/C (dose: 25.0 mg/kg/injection, schedule: Q01DX009 (ip), vehicle: Klucel (hydroxypropylcellulose) (HPC)) was 110 % of control, the T/C [9] was 100 % of control and the T/C [10] was 106 % of control. The T/C [13] was 105 % of control.
`O=C(Nc1ccc([N+](=O)[O-])cc1)C1C(=O)C(=O)N(c2ccc([N+](=O)[O-])cc2)C1=O` (stereo not drawn) was tested, and the T/C [9] was 107 % of control, the T/C [10] was 100 % of control and the T/C [13] was 104 % of control.
With `O=C1CCCN1.O=C1CCCN1.[Br][Co][Br]` the T/C [5] was 104 % of control and the T/C [6] was 122 % of control.
In the case of `Cc1noc2c1NC(=O)OC(C)(C)C2`, the T/C (dose: 12.5 mg/kg/injection, schedule: Q01DX005 (ip), vehicle: Klucel (hydroxypropylcellulose) (HPC)) is reported as 102 % of control, the T/C (dose: 25.0 mg/kg/injection, schedule: Q01DX005 (ip), vehicle: Klucel (hydroxypropylcellulose) (HPC)) is reported as 105 % of control and the T/C (dose: 50.0 mg/kg/injection, schedule: Q01DX005 (ip), vehicle: Klucel (hydroxypropylcellulose) (HPC)) is reported as 100 % of control. For the same compound, the T/C (dose: 100.0 mg/kg/injection, schedule: Q01DX005 (ip), vehicle: Klucel (hydroxypropylcellulose) (HPC)) was 104 % of control and the T/C (dose: 200.0 mg/kg/injection, schedule: Q01DX005 (ip), vehicle: Klucel (hydroxypropylcellulose) (HPC)) was 101 % of control.
With `CCOC(=O)Cc1ccc(-c2csc(Nc3ccc(F)cc3)n2)cc1` the T/C [9] was 103 % of control, the T/C [10] was 100 % of control and the T/C [13] was 105 % of control.
For `COCn1ccnc1C(=O)c1ccccc1`, the T/C [6] was 100 % of control, the T/C [7] was 106 % of control and the T/C [11] was 101 % of control.
